Data set [1] concerns the target T1, Cytochrome P450 1A2 (Homo sapiens, UniProt P05177).
T1 sequence (P05177 whole entry): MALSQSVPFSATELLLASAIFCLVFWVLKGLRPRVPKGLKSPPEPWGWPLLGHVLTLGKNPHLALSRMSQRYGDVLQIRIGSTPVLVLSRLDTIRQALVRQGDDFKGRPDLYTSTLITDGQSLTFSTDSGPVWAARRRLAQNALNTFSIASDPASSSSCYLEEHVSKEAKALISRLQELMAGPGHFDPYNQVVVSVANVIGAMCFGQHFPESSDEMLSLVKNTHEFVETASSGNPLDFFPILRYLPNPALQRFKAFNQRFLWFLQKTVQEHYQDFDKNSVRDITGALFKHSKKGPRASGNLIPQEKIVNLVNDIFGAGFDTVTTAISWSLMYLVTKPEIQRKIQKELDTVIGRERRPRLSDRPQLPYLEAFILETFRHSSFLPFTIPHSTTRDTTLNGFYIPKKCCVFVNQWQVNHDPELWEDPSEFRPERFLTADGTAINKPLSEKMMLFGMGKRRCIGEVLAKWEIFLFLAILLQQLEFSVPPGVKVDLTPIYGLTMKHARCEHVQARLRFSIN
Kind of data set: Inhibition of CYP1A2 in human liver microsomes using phenacetin as substrate preincubated for 10 mins followed by NADPH addition and measured after 10 mins by LC-MS/MS analysis. It counts as ADME, Microsome.

The target of data set [2] is Cytochrome P450 3A4 (Homo sapiens, UniProt P08684). Description: Inhibition of CYP3A4 in human liver microsomes using midazolam as substrate preincubated for 10 mins followed by NADPH addition and measured after 10 mins by LC-MS/MS analysis. It counts as ADME, Microsome.
The nature of data set [3]: Half-life in male Sprague-Dawley rat at 20 mg/kg, po measured after 24 hrs by LC-MS/MS analysis. Type of data set: ADME, organism-based. Conditions: male, Sprague-Dawley, in vivo.
Data set [4] deals with Mus musculus. Kind of data set: Anti-inflammatory activity in LPS-induced male C57BL/6 mouse model of acute […] injury assessed as reduction in hyperemia of pulmonary alveolar septa in lung at 2 to 6 mg/kg, IG preadministered with compound for 7 days followed by LPS administration and measured after 24 hrs by H and E staining based histopathological analysis. It counts as functional, organism-based. As to conditions: dose 2-6 mg/kg, time 8.0 day.

A short description of data set [5]: Clearance in male Sprague-Dawley rat at 20 mg/kg, po measured after 24 hrs by LC-MS/MS analysis. Conditions: in vivo. Type of data set: ADME, organism-based.
For data set [6], the target named is Voltage-gated inwardly rectifying potassium channel KCNH2 (Homo sapiens, UniProt Q12809). Kind of data set: Inhibition of human ERG by PatchXpress analysis. Type of data set: toxicity.
The subject of data set [7] is Mus musculus. Description: Anti-inflammatory activity in LPS-induced male C57BL/6 mouse model of acute […] injury assessed as reduction in infiltration of neutrophils into lung at 2 to 6 mg/kg, IG preadministered with compound for 7 days followed by LPS administration and measured after 24 hrs by immunofluorescence analysis. It counts as functional, organism-based. As to conditions: dose 2-6 mg/kg, time 8.0 day.

The results in this text go back to ChEMBL document CHEMBL6127087 (Eur J Med Chem, 2024).

Activity calls are given as the source filed them. No cut-off for these calls is given here. A value given as a limit tells only on which side of the number the result lay.

Voltage-gated inwardly rectifying potassium channel KCNH2, sequence (Q12809 whole entry): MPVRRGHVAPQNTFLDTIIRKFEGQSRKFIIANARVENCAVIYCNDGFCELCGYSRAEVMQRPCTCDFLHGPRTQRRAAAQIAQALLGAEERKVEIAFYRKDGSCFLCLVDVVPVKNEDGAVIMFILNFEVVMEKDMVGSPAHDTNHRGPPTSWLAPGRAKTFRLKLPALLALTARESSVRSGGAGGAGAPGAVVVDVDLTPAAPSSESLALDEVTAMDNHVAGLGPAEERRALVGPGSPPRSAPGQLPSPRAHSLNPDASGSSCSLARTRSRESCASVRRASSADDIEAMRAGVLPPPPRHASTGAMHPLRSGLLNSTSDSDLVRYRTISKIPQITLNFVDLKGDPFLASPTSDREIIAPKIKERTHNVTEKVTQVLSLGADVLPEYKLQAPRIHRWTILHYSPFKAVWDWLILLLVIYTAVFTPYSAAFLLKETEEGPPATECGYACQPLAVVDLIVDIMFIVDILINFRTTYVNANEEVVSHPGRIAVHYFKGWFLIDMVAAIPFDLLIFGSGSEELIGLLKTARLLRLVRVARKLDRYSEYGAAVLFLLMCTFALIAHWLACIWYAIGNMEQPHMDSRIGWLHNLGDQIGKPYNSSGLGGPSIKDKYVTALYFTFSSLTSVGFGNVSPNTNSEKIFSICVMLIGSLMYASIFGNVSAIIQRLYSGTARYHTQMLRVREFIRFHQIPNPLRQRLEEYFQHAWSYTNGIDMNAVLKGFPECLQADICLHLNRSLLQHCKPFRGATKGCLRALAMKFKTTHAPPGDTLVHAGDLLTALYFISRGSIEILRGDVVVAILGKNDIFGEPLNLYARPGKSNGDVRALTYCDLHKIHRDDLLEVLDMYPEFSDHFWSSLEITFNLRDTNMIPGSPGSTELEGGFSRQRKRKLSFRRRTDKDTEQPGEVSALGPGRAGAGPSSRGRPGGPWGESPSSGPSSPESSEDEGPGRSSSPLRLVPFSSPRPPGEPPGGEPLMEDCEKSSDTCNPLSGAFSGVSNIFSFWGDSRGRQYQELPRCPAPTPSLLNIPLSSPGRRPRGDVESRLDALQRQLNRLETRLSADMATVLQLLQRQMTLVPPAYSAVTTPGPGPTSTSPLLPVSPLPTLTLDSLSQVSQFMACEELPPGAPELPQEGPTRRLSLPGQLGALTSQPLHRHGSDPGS
Cytochrome P450 3A4, sequence (P08684 whole entry): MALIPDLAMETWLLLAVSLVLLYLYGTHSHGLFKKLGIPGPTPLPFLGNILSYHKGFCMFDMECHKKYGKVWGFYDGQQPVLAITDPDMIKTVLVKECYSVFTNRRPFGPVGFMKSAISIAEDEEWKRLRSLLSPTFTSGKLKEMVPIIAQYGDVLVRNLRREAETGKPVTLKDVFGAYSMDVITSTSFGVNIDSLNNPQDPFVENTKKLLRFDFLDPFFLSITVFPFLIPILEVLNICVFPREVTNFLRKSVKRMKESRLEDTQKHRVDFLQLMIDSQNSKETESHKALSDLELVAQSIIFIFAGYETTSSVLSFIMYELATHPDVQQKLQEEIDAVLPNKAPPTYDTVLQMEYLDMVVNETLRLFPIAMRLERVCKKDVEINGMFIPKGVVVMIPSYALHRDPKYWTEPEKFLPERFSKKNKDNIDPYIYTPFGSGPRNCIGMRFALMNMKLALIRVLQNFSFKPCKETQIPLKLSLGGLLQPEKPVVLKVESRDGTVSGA

For the compound `O=C(O)CCC(=O)N1N=C(c2ccc[nH]2)CC1c1cnc2ccccc2c1` (configuration not stated), the IC50 in data set [1], in data set [2] and in data set [6] was above 50 µM each time. In addition, the half-life in data set [3] is 5.2 h. The outcome in data set [4] and in data set [7] was Active. Besides, in data set [5], the CL/F turned out to be 28.3 mL/min/kg.
